Here are results for two compounds from ChEMBL document CHEMBL1151641, “Antitumor agents, 71. Nudaphantin, a new cytotoxic germacranolide, and elephantopin from Elephantopus nudatus” (1985).

Values after ≈ are worked out from the molar mass of the structure shown.

Common to all, as to type: functional
Test [1] has as its system P388. The test is described as follows: In vivo antileukemic activity against mouse P388 cells at 10 mg/kg relative to control.
The subject of a further test is KB. The test is described as follows: Cytotoxicity against human KB cells.
Test [2] relates to P388. The test is described as follows: In vivo antileukemic activity against mouse P388 cells at 40 mg/kg relative to control.

As for `C=C(C)C(=O)O[C@H]1CC2=C[C@@H](C[C@@]3(C)O[C@@H]3[C@H]3OC(=O)C(=C)[C@@H]31)OC2=O` [ELEPHANTOPIN], the T/C is given as 160% with P388 [1] and 171% in the test on P388 [2]. Also, in the test with KB, the ED50 was found to be 0.32 µg/mL (≈ 0.888 µM).
With `C=C(C)C(=O)O[C@H]1CC2=C[C@@H](C[C@@]3(C)O[C@@H]3[C@H]3OC(=O)C(=C)[C@@H]31)OC2OCC` (some centres undefined) [NUDAPHANTIN], in the test with KB (Homo sapiens, KB, read-out: ED50 (the source's name)), the EC50 worked out at 0.31 µg/mL (≈ 0.794 µM).
